Reference: patent US20080269161A1, “Compositions and Methods Relating to Mitochondrial Hyperpolarization in Neurological Disease” (priority 2005, published 2008)
Entries after “also recorded” stand apart in the source; their conditions may differ.

Columns and labels:
[1] = tested on: Tat-stimulated TNF release in monocytes; experiment: Tat-stimulated TNF release by primary monocytes (ELISA); type: cell-based, human; details: 4 h
Experimental: Human primary monocytes were treated with Tat (100 nM) in the presence or absence of the A2AR agonist, CGS21680 (CGS; 1 μM) or the A2AR antagonist, ZM241385 (100 nM) for 4 h. TNF levels in culture supernatants were then quantitated by ELISA. Data represent mean+SEM of three replicates, from a single representative experiment
Primary monocytes were seeded in separate triplicate wells, and exposed independently to LPS (100 ng/ml), vehicle (NT) or Tat (100 nM) in the presence or absence of the A2AR agonist, CGS21680 (1 μM). After 4 h, cells were harvested. (A) TNF was measured in cell supernatants by ELISA Mean data values (±S.D.) are shown for the triplicate wells. (B) The corresponding cells from each well in panel A were lysed and subjected to qRTPCR analysis. Each cDNA sample was analyzed in quadruplicate. Assay results are presented as fold induction of gene expression, compared to untreated cells, after normalization to levels of GAPDH. Data represent mean±SD for each individual experimental replicate/well.
Human primary monocytes were treated with Tat (100 nM) in the presence or absence of the A2AR agonist, ATL313 (1-4 nM) or the A2AR antagonist, ATL455 (1-4 nM) for 4 h. TNF levels in culture supernatants were then quantitated by ELISA. […]
Human primary monocytes were treated with Tat (100 nM) in the presence or absence of the A2AR agonist, ATL313 (at the indicated doses) for 4 h. TNF levels in culture supernatants were then quantitated by ELISA. […]
(6) Primary monocytes. […] Results are compared for both populations, as well as purity (as assessed by immunophenotyping using CD14, CD68 and MHC class II).
The effect of an A2AR agonist on TNF release by primary human monocytes was also determined. Monocytes were stimulated with HIV-1 Tat, in the presence or absence of the A2AR agonist CGS21680 or the A2AR antagonist ZM251385 and TNF release was then measured in cell culture supernatants using an ELISA assay.
Quantitative real-time PCR analysis was used to measure TNF message levels in Tat-treated monocytes. […]

[2] = tested on: rat cerebellar granule neurons (CGNs); experiment: Tat-induced apoptosis of cerebellar granule neurons (TUNEL); type: cell-based; details: Tat 500 nM, 48 h
Experimental: (§1) CGNs were exposed to HIV-1 Tat (Tat, 500 nM), or vehicle alone (NT), in the presence or absence of the A2A antagonist, ZM241385. After 48 h, cultures were analyzed for the percentage of apoptotic cells using the TUNEL assay. Data represent mean±SEM for one experiment that was performed in triplicate; data are representative of two independent experiments.
as §1, with “(No Tat),” for “(NT),”, “A2AR antagonists, ATL455 and ZM241385, or the A2AR agonists ATL313 and CGS21680.” for “A2A antagonist, ZM241385.”
(1) Primary rat cerebellar granule neurons (CGNs). CGNs represent a highly homogenous population of primary neurons which are susceptible to Tat and PAF-mediated cell killing and have been used in many of previous studies. CGN cells are isolated according to published procedures [Maggirwar, S. B., et al. 1999. J Neurochem 73:578-86] [Tong, N., et al. 2001. Eur J Neurosci 13:1913-22].
78(4): p. […] 22(6): p. 1102-6].
Primary rat cerebellar granule neurons (CGNs) were exposed to a neurotoxic concentration of HIV-1 Tat, in the presence or absence of an A2AR antagonist (ZM241385). […] It is important to note that CGNs express adenosine A2A receptors [Vacas, J., et al. 2003. Brain Res 992:272-280].
Primary cultures of rat cerebellar granule neurons (CGNs) were exposed to HIV-Tat ([…]) alone or together with increasing doses of the A2AR antagonist ATL-455 or A2A agonists ATL313 or CGS21680. Cells are treated with the test compounds for defined time intervals of up to 48 hours (1, 4, 8, 24, and 48 hours).

[3] = molecular target: T1, human adenosine receptor A1 (Homo sapiens, UniProt P30542); details: recombinant human receptor; cited from earlier work
T1 sequence (P30542 1-326): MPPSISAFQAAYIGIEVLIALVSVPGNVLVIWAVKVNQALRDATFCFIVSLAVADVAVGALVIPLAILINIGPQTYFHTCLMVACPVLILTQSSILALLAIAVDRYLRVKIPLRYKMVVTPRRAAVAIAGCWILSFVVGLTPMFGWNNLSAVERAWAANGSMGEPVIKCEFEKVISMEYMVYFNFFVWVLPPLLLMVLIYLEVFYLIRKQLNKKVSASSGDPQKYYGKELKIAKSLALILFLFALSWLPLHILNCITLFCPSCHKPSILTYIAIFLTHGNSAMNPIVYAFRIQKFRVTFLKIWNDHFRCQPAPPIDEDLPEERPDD

[4] = molecular target: human adenosine receptor A2A (Homo sapiens, UniProt P29274); details: recombinant human receptor; cited from earlier work
[5] = molecular target: T2, human adenosine receptor A2B (Homo sapiens, UniProt P29275); details: recombinant human receptor; cited from earlier work
T2 sequence (P29275 1-332): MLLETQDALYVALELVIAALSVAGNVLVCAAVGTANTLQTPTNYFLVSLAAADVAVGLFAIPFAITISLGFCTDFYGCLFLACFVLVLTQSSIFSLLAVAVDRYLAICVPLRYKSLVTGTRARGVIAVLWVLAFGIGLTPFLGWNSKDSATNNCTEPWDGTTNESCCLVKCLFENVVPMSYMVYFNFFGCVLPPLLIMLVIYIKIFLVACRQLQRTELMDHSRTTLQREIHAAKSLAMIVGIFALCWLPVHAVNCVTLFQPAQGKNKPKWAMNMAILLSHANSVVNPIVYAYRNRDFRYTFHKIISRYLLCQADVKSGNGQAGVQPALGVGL

[6] = molecular target: T3, human adenosine receptor A3 (Homo sapiens, UniProt P0DMS8); details: recombinant human receptor; cited from earlier work
T3 sequence (P0DMS8 1-318): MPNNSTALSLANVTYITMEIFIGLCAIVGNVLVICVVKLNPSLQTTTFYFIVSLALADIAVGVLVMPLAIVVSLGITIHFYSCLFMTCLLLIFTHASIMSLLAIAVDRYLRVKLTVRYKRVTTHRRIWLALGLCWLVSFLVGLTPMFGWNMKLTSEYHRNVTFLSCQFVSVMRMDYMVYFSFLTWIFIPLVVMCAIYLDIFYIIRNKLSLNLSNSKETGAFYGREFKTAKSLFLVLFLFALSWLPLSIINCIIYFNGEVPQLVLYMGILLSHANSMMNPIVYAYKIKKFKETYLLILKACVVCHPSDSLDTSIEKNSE

human adenosine receptor A2A, sequence (P29274 whole entry): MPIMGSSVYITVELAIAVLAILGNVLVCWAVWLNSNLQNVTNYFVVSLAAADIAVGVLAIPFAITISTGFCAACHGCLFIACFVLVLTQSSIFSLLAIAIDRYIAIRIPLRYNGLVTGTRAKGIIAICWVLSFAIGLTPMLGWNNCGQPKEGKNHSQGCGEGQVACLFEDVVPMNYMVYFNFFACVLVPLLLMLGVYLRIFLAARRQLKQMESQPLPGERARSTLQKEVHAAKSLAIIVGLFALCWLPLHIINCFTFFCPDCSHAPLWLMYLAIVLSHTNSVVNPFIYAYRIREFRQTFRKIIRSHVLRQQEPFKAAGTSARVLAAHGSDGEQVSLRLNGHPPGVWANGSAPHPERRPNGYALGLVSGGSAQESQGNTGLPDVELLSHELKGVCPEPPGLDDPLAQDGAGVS

For `COC(=O)N1CCC(CC#Cc2nc(N)c3ncn(C4OC(C(=O)NC5CC5)C(O)C4O)c3n2)CC1` (stereo not shown) [ATL313, 4-{3-[6-amino-9-(5-cyclopropylcarbamoyl-3,4-dihydroxytetrahydrofuran-2-yl)-9H-purin-2-yl]prop-2-ynyl}piperidine-1-carboxylic acid methyl ester], the IC50 ([1]; Homo sapiens, Monocyte, read-out: approximate IC50 for inhibitory effect on Tat-stimulated TNF release in monocytes) was less than 0.001 µM, the “effect on Tat-induced monocyte activation (TNF release)” value ([1]; Tat 100 nM, CGS21680 1 μM, ATL313, ATL455 1-4 nM) was “very similar results; also recorded: opposed” and the “effect on Tat-induced neuronal apoptosis” value [2] was “did not result in an increase in cell death”. For the same molecule, the Ki [3] was 0.052 µM, the Ki [4] was 0.0006 µM and the Ki [5] was greater than 1 µM. For the same molecule, the Ki [6] was 0.32 µM.
